Data from PMC8369945 (Hepatology Communications, 2021).
Entries after “also recorded” stand apart in the source; their conditions may differ.

Assays:
[1] = tested on: db/db mice; assay: db/db mouse model of T2DM; format: in vivo; details: 10 days once daily p.o., pio 30, PXL065 20, d-S-pio 20 mg/kg
[2] = tested on: C57BL/6J male mice; assay: Weight gain study in mouse; format: in vivo; details: normal C57BL/6J male mice, pio 30, PXL065 15, d-S-pio 15 mg/kg/day, twice daily; for body weight versus vehicle: after 10 days of dosing
[3] = tested on: C57BL/6J mice on CD or MCD diet; assay: Choline-deficient; format: in vivo, mouse; details: for markers of NASH progression: two diet models (d-S-pio only CD)
[4] = Phase 1a clinical study, pharmacokinetics in healthy subjects; details: human, single 22.5 mg PXL065
[5] = target: T1, PPARδ (Homo sapiens, UniProt Q03181); assay: PPARδ coactivator recruitment
T1 sequence (Q03181 1-441): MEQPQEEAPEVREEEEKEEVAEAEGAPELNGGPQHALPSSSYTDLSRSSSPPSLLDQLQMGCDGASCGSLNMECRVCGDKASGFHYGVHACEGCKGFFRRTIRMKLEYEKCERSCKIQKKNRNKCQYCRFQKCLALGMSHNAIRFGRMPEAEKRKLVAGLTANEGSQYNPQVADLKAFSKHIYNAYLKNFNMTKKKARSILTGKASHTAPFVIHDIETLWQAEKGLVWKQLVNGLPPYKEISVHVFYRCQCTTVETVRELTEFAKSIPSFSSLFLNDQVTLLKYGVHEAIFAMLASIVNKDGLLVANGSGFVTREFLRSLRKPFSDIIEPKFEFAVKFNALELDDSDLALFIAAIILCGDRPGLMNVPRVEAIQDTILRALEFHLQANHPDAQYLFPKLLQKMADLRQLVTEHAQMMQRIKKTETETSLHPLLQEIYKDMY

[6] = target: T2, PPARα (Homo sapiens, UniProt Q07869); assay: PPARα coactivator recruitment
T2 sequence (Q07869 1-468): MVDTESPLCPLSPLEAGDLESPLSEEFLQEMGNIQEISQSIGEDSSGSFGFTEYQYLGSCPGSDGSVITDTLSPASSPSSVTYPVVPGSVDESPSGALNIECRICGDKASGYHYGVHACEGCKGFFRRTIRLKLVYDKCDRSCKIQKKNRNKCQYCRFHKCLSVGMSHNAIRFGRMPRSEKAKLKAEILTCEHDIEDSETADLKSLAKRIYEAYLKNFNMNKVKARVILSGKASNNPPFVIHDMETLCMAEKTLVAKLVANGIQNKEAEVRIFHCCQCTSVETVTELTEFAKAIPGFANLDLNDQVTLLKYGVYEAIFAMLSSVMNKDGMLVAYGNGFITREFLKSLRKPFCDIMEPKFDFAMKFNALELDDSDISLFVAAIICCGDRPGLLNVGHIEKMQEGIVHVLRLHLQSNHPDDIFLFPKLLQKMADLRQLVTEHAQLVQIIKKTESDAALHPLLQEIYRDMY

## [2H][C@]1(Cc2ccc(OCCc3ccc(CC)cn3)cc2)SC(=O)NC1=O [PXL065, deuterated (R)‐pioglitazone]
[1]
  inflammatory markers serum amyloid A, IL-1β and IL-6: significantly decreased
  serum adiponectin: nonsignificant trend
[2]
  body weight versus vehicle: did not increase body weight
[3]; CD diet mice
  adiponectin: increase
  reduction of hepatic steatosis and triglycerides, compared with pioglitazone: superior to pioglitazone
[3]
  markers of NASH progression: significantly affected all markers of NASH progression
[4]
  exposure to (R)-pioglitazone, higher than in the 45-mg Actos group: 19%
  exposure to the (S)-enantiomer, lower than in the 45-mg Actos group: 42%

## [2H][C@@]1(Cc2ccc(OCCc3ccc(CC)cn3)cc2)SC(=O)NC1=O [d‐S‐pio, deuterated (S)‐pioglitazone]
[1]
  inflammatory markers serum amyloid A, IL-1β and IL-6: no effect
  serum adiponectin: significantly increased
  serum insulin: trend toward significant reduction
[2]
  body weight versus vehicle: significantly increased body weight over vehicle
  fluid retention (total body water): trend was observed for increased fluid retention; also recorded: a trend was observed
[3]; CD diet mice
  adiponectin: increase
[3]; either diet
  hepatic fibrosis: antifibrotic effect similar to that observed with PXL065 and pioglitazone
[3]
  markers of NASH progression: overall without effect

## CCc1ccc(CCOc2ccc(CC3SC(=O)NC3=O)cc2)nc1 (centres unmarked) [pioglitazone, reference compound]
[5]
  agonist activity at PPARδ: Neither pioglitazone, PXL065, nor d‐S‐pio showed binding to PPARα or agonist activity at PPARα or PPARδ
[1]
  inflammatory markers serum amyloid A, IL-1β and IL-6: significantly decreased
  serum adiponectin: significantly increased
  serum insulin: significantly decreased
[6]
  agonist activity at PPARα: Neither pioglitazone, PXL065, nor d‐S‐pio showed binding to PPARα or agonist activity at PPARα or PPARδ
[2]
  body weight versus vehicle: significantly increased body weight over vehicle
  fluid retention (total body water): trend was observed for increased fluid retention; also recorded: significant increase in total body water
[3]; CD diet mice
  adiponectin: increase
[3]; MCD diet
  body-weight loss compared with vehicle- or PXL065-treated animals: weight loss tended to be less
[3]
  markers of NASH progression: significantly affected all markers of NASH progression
